Results from patent US8697727B2, “N-substituted-heterocycloalkyloxybenzamide compounds and methods of use” (Rigel Pharmaceuticals, Inc., priority 2006, dated 2014).

System: AMPK
Test: AMPK activation, enzyme-linked immunosorbent assay
Assay type: cell-based
How it was run: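 Cell-based assay in which AMPK activity was measured as the relative concentration of phosphorylated acetyl-CoA carboxylase, a product of AMPK, by enzyme-linked immunosorbent assay. The endpoint is the EC50 for AMPK activation of each compound. EC50 values were reported in ranges: less than 1 μM, 1-10 μM, 10-20 μM, 20-50 μM, 50-100 μM, and >100 μM.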

Structure (SMILES)	EC50
O=C(NC1CCN(Cc2ccccc2)CC1)c1ccc(OC2CCN(Cc3ccc4c(c3)OCCO4)CC2)c(Cl)c1 [Compound 15, N-(1-benzylpiperidin-4-yl)-3-chloro-4-(1-((2,3-dihydrobenzo[b][1,4]dioxin-6-yl)methyl)piperidin-4-yloxy)benzamide]	< 1 µM
Cc1ccc(CN2CCC(Oc3ccc(C(=O)NC4CCN(Cc5ccc(Cl)cc5)CC4)cc3F)CC2)cc1 [Compound 73, N-(1-(4-chlorobenzyl)piperidin-4-yl)-3-fluoro-4-(1-(4-methylbenzyl)piperidin-4-yloxy)benzamide]	< 1 µM
O=C(NC1CCN(Cc2ccccc2)CC1)c1ccc(OC2CCN(Cc3ccncc3)CC2)c(F)c1 [Compound 37, N-(1-benzylpiperidin-4-yl)-3-fluoro-4-(1-(pyridin-4-ylmethyl)piperidin-4-yloxy)benzamide]	< 1 µM
O=C(NC1CCN(Cc2ccccc2)CC1)c1ccc(OC2CCN(Cc3ccc(Cl)cc3)CC2)c(Cl)c1 [Compound 65, N-(1-benzylpiperidin-4-yl)-3-chloro-4-(1-(4-chlorobenzyl)piperidin-4-yloxy)benzamide]	< 1 µM
N#Cc1ccc(CN2CCC(NC(=O)c3ccc(OC4CCN(c5ccc(C(F)(F)F)cc5)CC4)c(F)c3)CC2)cc1 [Compound 43, N-(1-(4-cyanobenzyl)piperidin-4-yl)-3-fluoro-4-(1-(4-(trifluoromethyl)phenyl)piperidin-4-yloxy)benzamide]	< 1 µM
O=C(NC1CCN(Cc2ccccc2)CC1)c1cc(Cl)c(OC2CCN(Cc3cccc(C(F)(F)F)c3)CC2)c(Cl)c1 [Compound 62, N-(1-benzylpiperidin-4-yl)-3,5-dichloro-4-(1-(3-(trifluoromethyl)benzyl)piperidin-4-yloxy)benzamide]	< 1 µM
O=C(NC1CCN(C(=O)c2ccncc2)CC1)c1ccc(OC2CCN(c3ccc(C(F)(F)F)cc3)CC2)c(F)c1 [Compound 40, 3-fluoro-N-(1-isonicotinoylpiperidin-4-yl)-4-(1-(4-(trifluoromethyl)phenyl)piperidin-4-yloxy)benzamide]	< 1 µM
O=C(NC1CCN(Cc2ccccc2)CC1)c1ccc(OC2CCN(Cc3ccc(OC(F)(F)F)cc3)CC2)c(F)c1 [Compound 57, N-(1-benzylpiperidin-4-yl)-3-fluoro-4-(1-(4-(trifluoromethoxy)benzyl)piperidin-4-yloxy)benzamide]	< 1 µM
O=C(NC1CCN(Cc2ccccc2)CC1)c1ccc(OC2CCN(Cc3cccnc3)CC2)c(F)c1 [Compound 38, N-(1-benzylpiperidin-4-yl)-3-fluoro-4-(1-(pyridin-3-ylmethyl)piperidin-4-yloxy)benzamide]	1 to 10 µM
CC(C)(C)c1ccc(CN2CCC(Oc3ccc(C(=O)NC4CCN(Cc5ccccc5)CC4)cc3Cl)CC2)cc1 [Compound 16, N-(1-benzylpiperidin-4-yl)-4-(1-(4-tert-butylbenzyl)piperidin-4-yloxy)-3-chlorobenzamide]	< 1 µM
O=C(NC1CCN(Cc2ccccc2)CC1)c1ccc(OC2CCN(c3cccs3)CC2)c(Cl)c1 [Compound 10, N-(1-benzylpiperidin-4-yl)-3-chloro-4-(1-(thiophen-2-yl)piperidin-4-yloxy)benzamide]	1 to 10 µM
Cc1ccc(CN2CCC(Oc3ccc(C(=O)NC4CCN(Cc5ccc(F)cc5)CC4)cc3Cl)CC2)cc1 [Compound 68, 3-chloro-N-(1-(4-fluorobenzyl)piperidin-4-yl)-4-(1-(4-methylbenzyl)piperidin-4-yloxy)benzamide]	< 1 µM
N#Cc1ccc(CN2CCC(Oc3c(Cl)cc(C(=O)NC4CCN(Cc5ccccc5)CC4)cc3Cl)CC2)cc1 [Compound 77, N-(1-benzylpiperidin-4-yl)-3,5-dichloro-4-(1-(4-cyanobenzyl)piperidin-4-yloxy)benzamide]	< 1 µM
O=C(NC1CCN(Cc2ccccc2)CC1)c1cccc(OC2CCN(Cc3ccc(C(F)(F)F)cc3)CC2)c1 [Compound 52, N-(1-benzylpiperidin-4-yl)-3-(1-(4-(trifluoromethyl)benzyl)piperidin-4-yloxy)benzamide]	1 to 10 µM
O=C(NC1CCN(Cc2ccccc2)CC1)c1ccc(OC2CCN(C(=O)c3ccc(F)cc3)CC2)c(Cl)c1 [Compound 22, N-(1-benzylpiperidin-4-yl)-3-chloro-4-(1-(4-fluorobenzoyl)piperidin-4-yloxy)benzamide]	1 to 10 µM
O=C(NC1CCN(c2ccccc2)CC1)c1ccc(OC2CCN(c3ccc(C(F)(F)F)cc3)CC2)c(F)c1 [Compound 25, 3-fluoro-N-(1-phenylpiperidin-4-yl)-4-(1-(4-(trifluoromethyl)phenyl)piperidin-4-yloxy)benzamide]	> 100 µM
CC(C)(C)c1ccc(CN2CCC(Oc3ccc(C(=O)NC4CCN(c5ccccc5)CC4)cc3F)CC2)cc1 [Compound 36, 4-(1-(4-tert-butylbenzyl)piperidin-4-yloxy)-3-fluoro-N-(1-phenylpiperidin-4-yl)benzamide]	< 1 µM
CC(C)(C)c1ccc(CN2CCC(Oc3ccc(C(=O)NC4CCN(Cc5ccccc5)CC4)cc3F)CC2)cc1 [Compound 20, N-(1-benzylpiperidin-4-yl)-3-fluoro-4-(1-(4-tert-butylbenzyl)piperidin-4-yloxy)benzamide]	< 1 µM

Structure (SMILES)	EC50
N#Cc1ccc(CN2CCC(Oc3cccc(C(=O)NC4CCN(Cc5ccccc5)CC4)c3)CC2)cc1 [Compound 50, N-(1-benzylpiperidin-4-yl)-3-(1-(4-cyanobenzyl)piperidin-4-yloxy)benzamide]	1 to 10 µM
O=C(NC1CCN(Cc2ccccc2)CC1)c1ccc(OC2CCN(Cc3ccncc3)CC2)c(Cl)c1 [Compound 6, N-(1-benzylpiperidin-4-yl)-3-chloro-4-(1-(pyridin-4-ylmethyl)piperidin-4-yloxy)benzamide]	< 1 µM
O=C(NC1CCN(Cc2ccccc2)CC1)c1ccc(OC2CCN(Cc3ccc(C(F)(F)F)cc3)CC2)c(F)c1 [Compound 55, N-(1-benzylpiperidin-4-yl)-3-fluoro-4-(1-(4-(trifluoromethyl)benzyl)piperidin-4-yloxy)benzamide]	< 1 µM
CC(C)S(=O)(=O)N1CCC(NC(=O)c2ccc(OC3CCN(c4ccc(C(F)(F)F)cc4)CC3)c(F)c2)CC1 [Compound 34, 3-fluoro-N-(1-(isopropylsulfonyl)piperidin-4-yl)-4-(1-(4-(trifluoromethyl)phenyl)piperidin-4-yloxy)benzamide]	< 1 µM
COc1cc(C(=O)NC2CCN(Cc3ccccc3)CC2)ccc1OC1CCN(c2ccco2)CC1 [Compound 12, N-(1-benzylpiperidin-4-yl)-3-methoxy-4-(1-(furan-2-yl)piperidin-4-yloxy)benzamide]	1 to 10 µM
N#Cc1ccc(CN2CCC(Oc3ccc(C(=O)NC4CCN(Cc5ccc(Cl)cc5)CC4)cc3F)CC2)cc1 [Compound 70, N-(1-(4-chlorobenzyl)piperidin-4-yl)-4-(1-(4-cyanobenzyl)piperidin-4-yloxy)-3-fluorobenzamide]	< 1 µM
COc1cc(C(=O)NC2CCN(Cc3ccccc3)CC2)ccc1OC1CCN(S(C)(=O)=O)CC1 [Compound 9, N-(1-benzylpiperidin-4-yl)-3-methoxy-4-(1-(methylsulfonyl)piperidin-4-yloxy)benzamide]	20 to 50 µM
O=C(NC1CCN(Cc2ccccc2)CC1)c1ccc(OC2CCN(Cc3ccc(OC(F)(F)F)cc3)CC2)cc1 [Compound 63, N-(1-benzylpiperidin-4-yl)-4-(1-(4-(trifluoromethoxy)benzyl)piperidin-4-yloxy)benzamide]	< 1 µM
CC(C)(C)OC(=O)N1CCN(C(=O)c2ccc(OC3CCN(Cc4ccccc4)CC3)cc2)CC1 [Compound 99, tert-butyl 4-(4-(1-benzylpiperidin-4-yloxy)benzoyl)piperazine-1-carboxylate]	1 to 10 µM
N#Cc1ccc(N2CCC(Oc3cccc(C(=O)NC4CCN(Cc5ccccc5)CC4)c3)CC2)cc1 [Compound 48, N-(1-benzylpiperidin-4-yl)-3-(1-(4-cyanophenyl)piperidin-4-yloxy)benzamide]	< 1 µM
O=C(NC1CCN(Cc2ccccc2)CC1)c1ccc(OC2CCN(c3ccc(C(F)(F)F)cc3)CC2)c(Cl)c1 [Compound 17, N-(1-benzylpiperidin-4-yl)-3-chloro-4-(1-(4-(trifluoromethyl)phenyl)piperidin-4-yloxy)benzamide]	< 1 µM
N#Cc1ccc(N2CCC(Oc3ccc(C(=O)NC4CCN(Cc5ccncc5)CC4)cc3F)CC2)cc1 [Compound 44, 4-(1-(4-cyanophenyl)piperidin-4-yloxy)-3-fluoro-N-(1-(pyridin-4-ylmethyl)piperidin-4-yl)benzamide]	< 1 µM
O=C(NC1CCN(Cc2ccccn2)CC1)c1ccc(OC2CCN(c3ccc(C(F)(F)F)cc3)CC2)c(F)c1 [Compound 32, 3-fluoro-N-(1-(pyridin-2-ylmethyl)piperidin-4-yl)-4-(1-(4-(trifluoromethyl)phenyl)piperidin-4-yloxy)benzamide]	< 1 µM
O=C(NC1CCN(Cc2ccc(Cl)cc2)CC1)c1ccc(OC2CCN(Cc3ccc(Cl)cc3)CC2)c(F)c1 [Compound 72, N-(1-(4-chlorobenzyl)piperidin-4-yl)-4-(1-(4-chlorobenzyl)piperidin-4-yloxy)-3-fluorobenzamide]	< 1 µM
CC(C)(C)C(=O)N1CCC(NC(=O)c2ccc(OC3CCN(c4ccc(C(F)(F)F)cc4)CC3)c(F)c2)CC1 [Compound 30, 3-fluoro-N-(1-pivaloylpiperidin-4-yl)-4-(1-(4-(trifluoromethyl)phenyl)piperidin-4-yloxy)benzamide]	< 1 µM
O=C(NC1CCN(Cc2ccncc2)CC1)c1ccc(OC2CCN(c3ccc(C(F)(F)F)cc3)CC2)c(F)c1 [Compound 28, 3-fluoro-N-(1-(pyridin-4-ylmethyl)piperidin-4-yl)-4-(1-(4-(trifluoromethyl)phenyl)piperidin-4-yloxy)benzamide]	< 1 µM
O=C(NC1CCN(Cc2ccccc2)CC1)c1ccc(OC2CCN(Cc3ccc(Cl)cc3)CC2)c(F)c1 [Compound 64, N-(1-benzylpiperidin-4-yl)-4-(1-(4-chlorobenzyl)piperidin-4-yloxy)-3-fluorobenzamide]	< 1 µM
